Experimental data as given in patent US20050020687A1, “Methods of treating inflammatory and viral disorders by administering cyclopentenone compounds” (priority 1996, published 2005).
Entries after “also recorded” stand apart in the source; their conditions may differ. Like-named read-outs stand apart in the source and are kept apart here.

Columns and labels:
[1] = tested on: NF-κB; experiment: TPA-induced NF-κB activation by EMSA in Jurkat cells; details: for IC90: read-out: NF-κB inhibition IC90, TPA 25 ng/ml; for TPA-induced NF-κB activation at 500 μM: 500 μM for 1 hour then TPA 25 ng/ml; for concentrations found to inhibit NF-κB activation: FIG. 10
Protocol: (§1) Three hours after treatment, whole cell extracts were prepared and analyzed by EMSA (Electrophoretic Mobility Shift Assay) as described in Amici et al., 1995, supra. After a 20 minute incubation at room temperature, HSF-HSE or NF-κB-DNA-complexes were analyzed by nondenaturing 4% polyacrylamide gel electrophoresis and autoradiography. The amount of shifted HSE probe and NF-κB probe, an indicator of HSF DNA-binding activity and NF-κB activity, respectively, were quantitated by Molecular Dynamics Phospholmager (MDP) analysis.
(§2) At different times or three hours after treatment, whole cell extracts were prepared and analyzed by EMSA (Electrophoretic Mobility Shift Assay) as described in Amici et al., 1995, supra. Briefly, extracts (10 μg/sample) were mixed with 0.1 ng of a ^32P-NF-κB element or ^32P—HSE oligonucleotide and 0.5 μg of poly(dI-dC) (Pharmacia Biotech Inc.) in 25 μl of binding buffer (10 nM Tris-Cl, pH 7.8, 50 mM NaCl, 1 mM EDTA, 0.5 mM dithiothreitol, 5% glycerol). After a 20 minute incubation at room temperature, HSF-HSE or NF-κB-DNA-complexes were analyzed by nondenaturing 4% polyacrylamide gel electrophoresis and autoradiography. The amount of shifted HSE probe and NF-κB probe, an indicator of HSF DNA-binding activity and NF-κB activity, respectively, were quantitated by Molecular Dynamics Phospholmager (MDP) analysis.
(§3) Jurkat cells were incubated with the compounds listed in Table 1 (infra) or reference diluent at different concentrations for 1 hour and then were stimulated with TPA (25 ng/ml). After 1 hour at 37° C. the whole-cell extracts were prepared and subjected to EMSA to determine NF-κB and HSF activation. The levels of binding-DNA activity of NF-κB were quantified with Molecular Dynamics Phosphorlmager analysis.

[2] = tested on: vesicular stomatitis virus (VSV), Indiana serotype (Orsay); type: cell-based; details: MA104 cells
[3] = tested on: VSV proteins; type: cell-based, vesicular stomatitis virus; details: VSV-infected MA104 cells, [35S]-methionine, SDS-PAGE
[4] = tested on: heat shock transcription factor (HSF); experiment: HSF activation by EMSA in K562 cells; details: 500 μM
Protocol: K562 human erythroleukemia cells, monolayers of monkey kidney cells (MA104 cells), and Jurkat cells were grown in RPMI 1640 medium supplemented with 10% fetal calf serum and antibiotics at 37° C. in a 5% CO2 humidified atmosphere (Amici et al., 1995, Cancer Research 55: 14452-4457).
At different times following 2-cyclopenten-1-one treatment or 3 hours following heat shock, whole cell extracts were prepared and analyzed by EMSA (Electrophoretic Mobility Shift Assay) as described in Amici et al., 1995, supra.

[5] = tested on: heat shock transcription factor (HSF); experiment: HSF activation by EMSA in Jurkat cells; details: for HSF activation at 500 μM: 500 μM for 1 hour then TPA; for concentrations found to activate HSF: TPA 25 ng/ml, FIG. 10
Protocol: as §1, §2, §3

[6] = tested on: HSP70; experiment: HSP70 and total protein synthesis in K562 cells ([35S]-methionine); details: 500 μM
Protocol: K562 cells treated with 500 μM 2 cyclopenten-1-one for different times were pulse-labeled with L-[^35S]-methionine (10 μCi/10^6 cells) for 1 hour. Cells were washed with phosphate buffered saline (PBS) and lysed with 400 μl of lysis buffer (20 nM Tris-Ci, pH 7.4, 0.1 M NaCl, 5 mM MgCl2, 1% Nonidet P-40, 0.5% SDS) containing protease inhibitors. After cell lysis, the radioactivity incorporated into trichloroacetic acid-insoluble material was determined, and an aliquot of samples containing the same amount of radioactivity were analyzed by 10% SDS-PAGE and autoradiography. HSP70 synthesis was determined by densitometric analysis of the autoradiograms. Total protein synthesis was determined as [^35S]-methionine incorporation into TCA-insoluble material (Amici et al., 1993, Exp. Cell. Res. 207. 230-234).

[7] = tested on: HSP70 gene transcription; experiment: Transcription run-on assay in isolated K562 nuclei
Protocol: In vitro run-on transcription reactions were performed in isolated K562 nuclei as described in Banerji et al, 1984, Mol. Cell. […] The vector plasmid (pBluescript) was used as a non-specific hybridization control. Following hybridization, the filters were visualized by autoradiography and the radioactivity was quantitated by MDP analysis. The values are expressed as arbitrary units obtained by comparing transcription rates to control levels.

[8] = tested on: HSP90 and HSP70 gene transcription; experiment: Transcription run-on assay in isolated Jurkat nuclei; type: cell-based, human
[9] = tested on: Influenza A virus A/PR8/34 (H1N1) (PR8 virus); experiment: PR8 influenza virus replication in MDCK cells (HAU and CPE50%); type: cell-based
[10] = tested on: PR8 influenza virus; experiment: Survival and body weight of PR8-infected Balb/c mice; type: in vivo
[11] = 10 μg/day/mouse i.p., for 4 days
[12] = tested on: HSP70; experiment: Cellular and heat shock protein synthesis in MDCK cells; type: cell-based, canine
[13] = tested on: MDCK cells
[14] = tested on: PR8 influenza virus proteins; type: cell-based, Influenza A virus
[15] = tested on: PR8 virus; experiment: Virus titer in the lungs of PR8-infected mice; type: in vivo, Balb/c mice; details: 10 μg/mouse/day i.p., four days after infection with 1 HAU PR8 virus/mouse

Molecule: CC(=O)NC(Cc1ccccc1)C(=O)Oc1ccc2ccccc2c1 (racemic) [APNE, N-acethyl-DL-phenylalanine-β-napthylester]
- IC90 [1]: 300 µM

Molecule: O=C1C=CCC1 [2-cyclopenten-1-one]
- TPA-induced NF-κB activation at 500 μM [1]: not detectable; also recorded: inhibits TPA-induced NF-κB activation
- lowest concentration inhibiting NF-κB activation by TPA ([1]; TPA 25 ng/ml): 125 µM
- inhibition of production of VSV infectious particles with respect to control ([2]; 24 h p.i., lower end of 100-500 μM): 10 times
- inhibition of production of VSV infectious particles with respect to control ([2]; 24 h p.i., upper end of 100-500 μM): more than 1000 times
- effect on VSV protein synthesis [3]: selective block of the viral protein synthesis
- less activated HSF at 24 hours than at 9 hours after treatment [4]: Approximately 50%
- time after treatment at which activation of HSF was detected [4]: 1.5 h
- time after treatment of maximum levels of HSF activation [4]: 9 h
- HSF activation at 500 μM ([5]; EMSA): detected
- HSF activation at 125 μM ([5]; same samples as NF-κB EMSA): detectable
- HSP70 protein synthesis versus cellular protein synthesis [6]: selectively stimulate HSP70 protein synthesis
- HSP70 mRNA transcription by 24 hours after treatment [7]: decreased
- time after treatment at which HSP70 mRNA transcription was detected [7]: 1.5 h
- time after treatment at which HSP70 transcription rates were maximal [7]: 6 to 9 h
- transcription of other stress proteins (HSC70, GRP78/BiP, heme-oxygenase) [7]: not affected

Molecule: O=c1oc(Cl)c(Cl)c2ccccc12 [DCIC, 3,4-dichloro-iso-coumarine]
- concentrations found to inhibit NF-κB activation ([1]; TPA 25 ng/ml): 5 to 10 µM
- IC90 [1]: 5.5 µM
- inhibition of production of VSV infectious particles with respect to control ([2]; lower end of 5-45 μM): 50%
- inhibition of production of VSV infectious particles with respect to control ([2]; upper end of 5-45 μM): more than 98%
- effect on VSV protein synthesis [3]: selective block of the viral protein synthesis
- duration of HSF activation following initiation of treatment ([5]; 5 μM, EMSA): 12 h
- time after treatment at which activation of HSF was detected ([5]; 5 μM, EMSA): 1 h
- time after treatment of maximum levels of HSF activation ([5]; 5 μM, EMSA): 3 h
- concentrations found to activate HSF ([5]; EMSA): 5 to 10 µM
- HSP90 and HSP70 mRNA transcription by 24 hours after treatment [8]: decreased
- selectivity of stress protein induction (HSP90, Grp78, HSC70, HSP70) [8]: selectively induces the expression of HSP90 and HSP70
- time after treatment at which HSP90 and HSP70 mRNA transcription were detected [8]: 1 h
- time after treatment at which HSP90 and HSP70 transcription rates were maximal [8]: about 3 hours

Molecule: CCCCC[C@H](O)/C=C/[C@H]1C=CC(=O)[C@@H]1CCCCCCC(=O)O [PGA1, Prostaglandin A1]
- effect on PR8 virus replication, comparison of prostaglandins [9]: only modestly and transiently inhibited
- decrease of PR8 virus yield up to 48 hours p.i. ([9]; MDCK cells, 10 μg/ml, data not shown): more than 90 % of control

Molecule: O=C1CCCC1 [cyclopentanone, reference compound]
- TPA-induced NF-κB activation at 500 μM [1]: do not inhibit NF-κB activation
- HSF activation at 500 μM ([5]; EMSA): not detected

Molecule: C1=CCCC1 [cyclopentene, reference compound]
- TPA-induced NF-κB activation at 500 μM [1]: do not inhibit NF-κB activation
- HSF activation at 500 μM ([5]; EMSA): not detected

Molecule: CCCCCC(O)C/C=C1/C(=O)C=CC1C/C=C\CCCC(=O)O (stereo not drawn) [Δ^12-PGJ2, 9-deoxy-Δ^9,Δ^12-13,14-dihydro-PGD2]
- mouse survival ([10]; 1 μg/day/mouse i.p. for 7 days, FIG. 15A): no effect on mouse survival
- survival of the animals ([10]; 5 μg/day/mouse i.p. daily for 7 days, FIG. 15B): 60%
- mice survival on day 25 p.i. ([10]; 5 μg/day/mouse i.p. for 7 days, FIG. 15A): 50%
- survival of the animals ([10]; 5 μg/day/mouse i.p. on days 0, 2 and 4, FIG. 15B): approximately 30%
- body weight at 7 days p.i. ([10]; PR8-infected mice, 7-day treatment, 5 μg/day/mouse): 18.25 ± 0.68 g
- signs of toxicity [11]: did not show any sign of toxicity
- loss of body weight in infected animals ([11]; data not shown): reduced
- PR8 virus yield at concentrations higher than 6 μg/ml [9]: not detectable
- PR8 virus yield in HAU [9]: 0 HAU
- effect on PR8 virus replication, comparison of prostaglandins [9]: most effective cyclopentenone prostaglandin
- infectious virus titer [9]: 3.2+0.6×10^1 CPE5O % units/ml
- inhibition of PR8 virus production [9]: greater than 95 % of control
- reduction of infectious virus titers [9]: more than 99 % of control
- period for which antiviral activity is sustained ([9]; MDCK cells, 6 μg/ml): at least 72 hours p.i.
- inhibition of PR8 virus replication up to 72 h p.i. ([9]; MDCK cells, single treatment with 6 μg/ml): more than 95%
- time after treatment at which HSP70 synthesis was detectable [12]: 3 h
- time for which HSP70 synthesis continued to be detectable [12]: at least 12 hours
- synthesis of HSP90 ([12]; MDCK cells, 6 μg/ml): enhanced
- synthesis of HSC70 and HSP70 ([12]; MDCK cells, 6 μg/ml, SDS-PAGE and immunoblot): markedly induced
- protein synthesis in uninfected cells ([12]; uninfected MDCK cells, 6 μg/ml, 24 hours): modest reduction
- uptake of precursors and DNA and RNA synthesis [13]: did not inhibit either the uptake of precursors or DNA and RNA synthesis
- virus-induced inhibition of cellular RNA synthesis [13]: prevented
- PR8 protein synthesis [14]: dramatic reduction
- viral proteins by immunoblot analysis at 24 hours p.i. [14]: not detectable
- virus titer in the lungs [15]: 0.07±0.03×10^4 CPE50% units/gr of lung tissue

Molecule: Nα-tosyl-lysine-chloromethylketone [TLCK]
- concentrations found to inhibit NF-κB activation ([1]; TPA 25 ng/ml): 30 to 75 µM
- IC90 [1]: 135 µM
- concentrations found to activate HSF ([5]; EMSA): 30 to 75 µM

Molecule: tosyl-L-phenylalanine-chloromethylketone [TPCK]
- concentrations found to inhibit NF-κB activation ([1]; TPA 25 ng/ml): 12.5 to 25 µM
- IC90 [1]: 12 µM
- concentrations found to activate HSF ([5]; EMSA): 12.5 to 25 µM
